Test results taken from US10087181B2, “Compound as WNT signaling inhibitor, composition, and use thereof” (CUREGENIX, INC., priority 2012, dated 2018).

Test system: WNT pathway
Assay: WNT pathway reporter gene assay (NIH3T3 TCF-Luc cells co-cultured with 293 WNT3a cells)
Format: cell-based
Settings: Mus musculus, concentration reducing luminescence intensity by 50%, TCF luciferase, 16 hours co-culture
Description: NIH3T3 mouse fibroblast cells (American Type Culture Collection, Manassas, Va.) were transfected with a plasmid containing a luciferase gene driven by 5 copies of TCF elements. Stale cells selected with 1 μg/mL of Zeocin (Gibco/Invitrogen, Carlsbad, Calif.) are cultured in Dulbecco's modified Eagle's medium (Invitrogen, Carlsbad, Calif.) supplemented with 10% FBS (Invitrogen), 50 unit/mL penicillin and 50 μg/mL of streptomycin (Invitrogen) at 37° C. with 5% CO2 in air atmosphere.
After 16 hours, the firefly luciferase activities are measured with the Steady-Glo™ Luciferase Assay System (Promega). The cells were treated with different concentrations of compounds of this invention during the co-culture. […] To normalize for cell quantity and viability, CellTiter Glo assay is next performed in a duplicate plate.

| Compound | IC50 [nM] |
| --- | --- |
| Cc1cc(-c2ccc(CNc3nccc4cc(-c5ccnc(C)c5)ncc34)cc2)ccn1 [Compound 1, N-(4-(2-methylpyridin-4-yl)benzyl)-6-(2-methylpyridin-4-yl)-2,7-naphthyridin-1-amine] | < 3 |
| Cc1cc(-c2ccc(CNc3nccc4cc(-c5cnccn5)ncc34)cc2)ccn1 [Compound 35] | < 3 |
| Cc1cc(-c2cc3ccnc(NCc4ccc(-c5ccnc(F)c5)c(F)c4)c3cn2)ccn1 [Compound 28] | < 3 |

Further lines, results first:

| IC50 [nM] | Compound |
| --- | --- |
| < 3 | Cc1cc(-c2cc3ccnc(NCc4ccc(-c5ccnc(C)c5)c(C)c4)c3cn2)ccn1 [Compound 2, N-(3-methyl-4-(2-methylpyridin-4-yl)benzyl)-6-(2-methylpyridin-4-yl)-2,7-naphthyridin-1-amine] |
| < 3 | Cc1cc(-c2ncc(CNc3nccc4cc(-c5cnccn5)ccc34)cc2C)ccn1 [Compound 70] |
